Data: PMC8944748, “Kojic Acid Showed Consistent Inhibitory Activity on Tyrosinase from Mushroom and in Cultured B16F10 Cells Compared with Arbutins” (Antioxidants, 2022)
Entries after “also recorded” stand apart in the source; their conditions may differ.

Tests used:
[1] = test system: T1, B16F10 cellular tyrosinase (BTYR); assay: B16F10 cellular tyrosinase (BTYR) activity, L-DOPA oxidase activity of lysate after treatment of cells; assay type: cell-based, mouse; settings: 48 h, percentage of control 2
T1 construct: The supernatant was used as the BTYR solution; endogenous in cells; host or cells: B16F10 mouse melanoma cells, α-MSH stimulated
Experimental: (§1) Measurement of B16F10 cellular tyrosinase (BTYR) activity, melanin content, and cell viability were the same as our previous study. Blank group (control 1) was the treatment containing cells and medium. Control group (control 2) was the treatment containing cells, medium, and α-MSH. Compound groups were the treatments containing cells, medium, α-MSH, and related compounds. Experiments were performed at least in triplicate.
(§2) B16F10 mouse malignant melanoma cell line from Stem Cell Bank (Chinese Academy of Sciences, Shanghai, China) were cultured in DMEM supplemented with 10% fetal bovine serum (FBS; Gibco, Grand Island, NV, USA) and antibiotics (100 U/mL penicillin and 100μg/mL streptomycin) in a humidified atmosphere of 5% CO2 at 37 °C. B16F10 cells at the exponential phase were adjusted for cell density and used in the following assay.
The BTYR activity was measured as the L-DOPA oxidase activity. B16F10 cells were seeded and incubated for 24 h in 24-well cell culture plates. Then, they were treated with 50 µL of 1 µM α-MSH and different molarities of compounds for another 48 h. After being washed twice with cold D-PBS and lysed with a lysis buffer (P0013J) containing 1% Triton X-100 for 30 min at −20 °C, the lysates were centrifuged at 12,000 rpm for 10 min at 4 °C. The supernatant was used as the BTYR solution. The reaction mixture, containing 50 μL of cell lysate supernatant and 50 μL of 5 mM L-DOPA, was incubated at 37 °C for 1 h and the level of dopachrome formation was measured spectrophotometrically at 475 nm. Lysis buffer was used as the control. The BTYR activity was calculated as a percentage of the control.

[2] = target: diphenolase of mushroom tyrosinase (MTYR); assay: Kinetic analysis of MTYR diphenolase (Lineweaver-Burk plot); assay type: biochemical
Experimental: (§3) The concentration of enzyme was fixed, while the concentration of substrate was changed. […] When determining inhibition type of monophenolase, the concentration of kojic acid were 7.5, 30, and 120 µM. […] The concentrations of deoxyarbutin were 3.75, 15, and 60 µM. […] The concentrations of deoxyarbutin were 7.5, 30, and 120 µM. Once the substrate was added to the reaction system, the formation of dopachrome was immediately detected at 475 nm once every minute for 30 min. Steady state rate (V0) was defined as the slope of the linear range of progress curves, also called the dopachrome accumulation curve. The Km (substrate concentration that yield a half-maximal velocity) and Vmax (maximum velocity) of tyrosinase were determined by Michaelis–Menten equation. Lineweaver–Burk plot was used to display the data.

[3] = test system: monophenolase of mushroom tyrosinase (MTYR); assay: MTYR monophenolase activity assay (L-tyrosine as substrate, dopachrome at 475 nm); assay type: biochemical
Experimental: L-tyrosine and L-DOPA were used as the substrates to test the monophenolase activity and diphenolase activity, respectively. Freshly prepared tyrosinase and substrate solutions were used in this experiment. For air-saturated solutions, a temperature of 25 °C and pH of 6.8 was maintained throughout the study. All assays were performed in triplicate. In flat-bottom 96-well plates, the reaction media was 200 μL. […] Once the substrate was added in reaction system, the formation of dopachrome was immediately measured at 475 nm for 30 min at 1 min intervals. The concentrations of kojic acid were 7.5, 15, 30, 60, and 120 μM. The concentrations of α-arbutin were 480, 960, 2000, 4000, and 8000 μM. The concentrations of β-arbutin were 240, 480, 960, 2000, and 4000 μM. […] These concentrations were used to determine the progress curves and inhibition rates of monophenolase. […] In the formula, 'negative control' is the treatment without sample; 'blank control' is the treatment without sample and substrate; 'sample' is the treatment including all solutions; and 'sample control' is the treatment without substrate but including sample. If the inhibition rate was negative, it meant the tyrosinase was activated. The activation rate was the absolute value of inhibition rate.

[4] = test system: tyrosinase diphenolase from B16 mouse melanoma cells; design: method as in PMID 7765966; settings: cited from earlier work
[5] = test system: diphenolase of mushroom tyrosinase (MTYR); assay: MTYR diphenolase activity assay (L-DOPA as substrate, dopachrome at 475 nm); assay type: biochemical; settings: L-DOPA
Experimental: L-tyrosine and L-DOPA were used as the substrates to test the monophenolase activity and diphenolase activity, respectively. Freshly prepared tyrosinase and substrate solutions were used in this experiment. For air-saturated solutions, a temperature of 25 °C and pH of 6.8 was maintained throughout the study. All assays were performed in triplicate. […] Additionally, three concentrations of every compound were selected to present progress curves. Once the substrate was added in reaction system, the formation of dopachrome was immediately measured at 475 nm for 25 min at 1 min intervals.

[6] = test system: diphenolase activity of MTYR; design: method as in PMID 7765966; settings: α-arbutin below 10 mM; cited from earlier work
[7] = Cell viability of B16F10 cells, CCK-8 assay; assay type: cell-based, mouse; settings: mouse, B16F10 melanoma cells, percentage of the control
Experimental: Blank group (control 1) was the treatment containing cells and medium. […] Compound groups were the treatments containing cells, medium, α-MSH, and related compounds. Experiments were performed at least in triplicate. […] B16F10 cells at the exponential phase were adjusted for cell density and used in the following assay. […] Cells were seeded into 96-well plates at a density of 1 × 10^4 cells/well and incubated for 24 h. Then, the cells were treated with different concentrations of compounds for 48 h. After rinsing once with D-PBS, 100 uL DMEM containing 10% CCK-8 was added and incubated for another 1 h. The absorbance values of the solution at 450 nm were measured. The cell viability is expressed as a percentage of the control.

[8] = test system: three-dimensional human skin model; design: method as in PMID 15056856; settings: cited from earlier work
[9] = test system: B16F10 cells; assay: Cellular melanin content of B16F10 cells stimulated by α-MSH; assay type: cell-based, mouse; settings: 48 h, percentage of control 2
Experimental: as §1, §2
Briefly, B16F10 cells were treated with compounds as in Section 2.4.2. After being washed with PBS and dissolved in 1 M NaOH containing 10% DMSO for 1 h at 80 °C, the cell lysates were centrifuged at 12,000 rpm for 10 min. 150 μL of supernatant was transferred to 96-well plates and the absorbance was measured at 405 nm. The melanin content is expressed as a percentage of the control.

[10] = target: MTYR monophenolase; design: method as in PMID 28493937; settings: read-out: IC50 on the inhibitory activity of MTYR monophenolase; cited from earlier work
[11] = target: monophenolase of mushroom tyrosinase (MTYR); assay: Kinetic analysis of MTYR monophenolase (Lineweaver-Burk plot); assay type: biochemical
Experimental: as §3

[12] = change with increasing compound molarity

OC[C@H]1O[C@H](Oc2ccc(O)cc2)[C@H](O)[C@@H](O)[C@@H]1O [α-arbutin]
tyrosinase activity of B16F10 cells stimulated by α-MSH ([1]; 43.8 µM): 91 ± 4% | tyrosinase activity of B16F10 cells stimulated by α-MSH ([1]; 87.5 µM): 88 ± 4% | tyrosinase activity of B16F10 cells stimulated by α-MSH ([1]; 175 µM): 90 ± 5% | tyrosinase activity of B16F10 cells stimulated by α-MSH ([1]; 350 µM): 93 ± 5% | tyrosinase activity of B16F10 cells stimulated by α-MSH ([1]; 700 µM): 86 ± 5% | Kinetic analysis on diphenolase Inhibition type ([2]; Lineweaver-Burk plot): uncompetitive activator | Kinetic analysis on diphenolase Km [2, 12]: increased | Kinetic analysis on diphenolase Vmax [2, 12]: increased | lag time for monophenolase activity ([3]; L-tyrosine, progress curves): extended in a molarity-dependent manner | IC50 ([3]; substrate L-tyrosine 2 mM, MTYR 300 U/mL, 25 °C, pH 6.8): 6.5 ± 0.137 mM | potency relative to β-arbutin as inhibitor of tyrosinase from B16 mouse melanoma [4]: 10 times | effect on diphenolase activity of MTYR ([5]; 30-8000 µM): prompted tyrosinase activity in a dose-dependent manner | lag time on diphenolase activity ([5]; progress curves): no lag time | effect on diphenolase activity of MTYR [6]: did not inhibit; also recorded: does not inhibit | viability at 48 h, 43.8 µM ([7]; 43.8 µM): 108 ± 5% | viability at 48 h, 87.5 µM ([7]; 87.5 µM): 113 ± 7% | viability at 48 h, 175 µM ([7]; 175 µM): 118 ± 8% | viability at 48 h, 350 µM ([7]; 350 µM): 127 ± 10% | viability at 48 h, 700 µM ([7]; 700 µM): 145 ± 14% | inhibition of melanin synthesis [8]: 60% | melanin content of B16F10 cells stimulated by α-MSH ([9]; 43.8 µM): 95 ± 11% | melanin content of B16F10 cells stimulated by α-MSH ([9]; 87.5 µM): 91 ± 5% | melanin content of B16F10 cells stimulated by α-MSH ([9]; 175 µM): 92 ± 3% | melanin content of B16F10 cells stimulated by α-MSH ([9]; 350 µM): 87 ± 5% | melanin content of B16F10 cells stimulated by α-MSH ([9]; 700 µM): 81 ± 3% | IC50 [10]: 8 mM | Kinetic analysis on monophenolase Inhibition type ([11]; Lineweaver-Burk plot): competitive inhibitor | Kinetic analysis on monophenolase Km [11, 12]: increased | Kinetic analysis on monophenolase Vmax [11, 12]: remained constant
